Common to all, as to assay: NCI anticancer screen, dose series, 48 h
Assay [1] deals with CCRF-CEM leukemia.
Assay [2] deals with OVCAR-8 ovarian.
For assay [3], the system named is T-47D breast.
Assay [4] concerns UACC-62 melanoma.
For assay [5], the system named is K-562 leukemia.
The test system of assay [6] is ACHN renal.
For assay [7], the system named is NCI/ADR-RES ovarian.
Assay [8] relates to MALME-3M melanoma.
Assay [9] relates to A498 renal.
The subject of assay [10] is SR leukemia.

“And” between values parts separate entries of the source, which are not always exact repeats. Identical values can stand only once.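 Dose response: 5 concentrations. Exposure: 48 h. Format: 96-well plates. Endpoint: linear interpolation; highest concentration if not reached. The concentration for 50% growth inhibition is given as GI50. TGI marks complete inhibition of growth.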

Consider `Cc1cc(O)c2c(c1O)C(=O)c1cccc(O)c1C2=O`, for which the TGI in assay [1], in assay [2], in [3], in assay [4], in assay [5] and in assay [6] was greater than 100 µM in each case. In [7], this compound gave a TGI greater than 100 µM.

Turning to `O=[N+]([O-])c1ccc2nc(Cl)n[n+]([O-])c2c1`, the TGI in assay [1] was determined as 2.8 µM; in assay [2], 30.7 µM; in assay [3], 47.3 µM; in assay [4] it was 27.9 µM; in [8], 29.5 µM; in assay [9] it was 21.2 µM. In addition, the TGI in assay [10] was found to be 4.93 µM; in assay [5], 2.74 µM; in assay [6], 27.2 µM; in assay [7], 60.1 µM.

Regarding `CC(=O)N1N=C(c2ccc3ccccc3c2O)CC1c1cccs1` (stereo not drawn), the TGI is greater than 100 µM in assay [1]; greater than 100 µM in assay [2]; greater than 100 µM in [3]; 25.9 µM in [4]; greater than 100 µM in assay [8]; 44.5 µM in [9]. Also, the TGI is 14.3 µM in assay [10], 22.5 µM in assay [5], greater than 100 µM in assay [6] and 39.5 µM in assay [7].

For `C(/C=C/c1ccccc1)=Nc1ccc2c(c1)Cc1ccccc1-2`, the TGI in assay [1], in [2], in [3], in [4], in assay [8] and in [9] was greater than 100 µM throughout. In addition, the TGI is 90.4 µM in assay [10], greater than 100 µM in assay [5], greater than 100 µM in assay [6] and greater than 100 µM in assay [7].

As for `C=C(C)C(=O)O[C@H]1CC2=C[C@@H](C[C@@]3(C)O[C@@H]3[C@H]3OC(=O)C(=C)[C@@H]31)OC2=O`, the GI50 in assay [1] was 1.18 µM; in assay [2], 0.406 µM; in assay [5] it was 1.21 µM. In addition, the TGI in assay [1] is 300 µM; in assay [2], 0.707 µM; in assay [4], 7.61 µM; in assay [8], 5.62 µM; in assay [9], 9.06 µM; in assay [5], 47.6 µM. The same compound had a TGI in assay [7] of 5.18 µM.

In the case of `CCOC1=NC(C(F)(F)F)(C(F)(F)F)N=C(N2CCOCC2)O1`, the TGI in [1], in [2], in assay [3], in [4], in assay [10] and in assay [6] was greater than 100 µM in each case. For the same compound, the TGI in assay [7] is greater than 100 µM.

Turning to `COc1cc(C2S/C(=C/c3ccccc3)C(=O)N2c2ccc(NC(C)=O)cc2)cc(OC)c1OC` (stereo not drawn), the TGI was 20.4 µM in assay [1]; 76.9 µM in assay [2]; 55.1 µM in assay [3]; greater than 100 µM in assay [4]; 55.6 µM in assay [8]; 67.3 µM in assay [9]. Besides, the TGI is greater than 100 µM in assay [10], greater than 100 µM in assay [5], 77.8 µM in assay [6] and 76.2 µM in [7].

Regarding `COc1ccc(-c2csc(=Nc3ccccc3)n2CCCN(C)C)cc1`, the TGI in assay [1] was greater than 100 µM; in assay [2] it was 75.6 µM; in assay [4], 34.7 µM; in assay [9] it was 49.2 µM; in assay [10], 67.1 µM; in assay [6], 48.6 µM. For the same compound, the TGI in assay [7] was found to be 54.3 µM.

`NC(CSCc1ccc(I)cc1)C(=O)O` (stereo not drawn): the TGI in [1], in assay [2], in assay [3], in assay [4], in [8] and in assay [9] was greater than 100 µM each time. For the same compound, the TGI in [5], in assay [6] and in [7] was greater than 100 µM throughout.

Consider `c1ccc(N2N=C(c3cccc(Nc4ccncc4)c3)CC2c2ccc3c(c2)OCO3)cc1` (stereo not drawn), for which the GI50 was 1.78 µM in [1]; 2.1 µM in assay [3]; 1.73 µM in [4]; 1.57 µM in assay [8]; 1.24 µM in [9]; 0.955 µM in assay [10]. The GI50 in assay [6] was 1.64 µM; in [7] it was 1.66 µM. Besides, the TGI turned out to be 7.85 µM in assay [1]; 5.12 µM in [3]; 3.24 µM in assay [4]; 3.06 µM in [8]; 5.58 µM in assay [9]; 2.89 µM in assay [10]. Also, the values for the TGI in assay [6] and in assay [7] were 3.21 µM and 3.6 µM, respectively.

Regarding `Cc1nc2c(c(=O)[nH]1)S/C(=C(/C#N)c1nc3ccccc3[nH]1)N2c1ccccc1`, the TGI in assay [1], in [2], in assay [4], in assay [8], in [9] and in assay [10] was greater than 100 µM each time. In addition, the TGI in assay [5] and in assay [6] was greater than 100 µM in each case.

As for `Cc1c(C)c(C)c(CC2(C)CSC2)c(CC2(C)CSC2)c1C`, the TGI in [1], in assay [2], in assay [3], in assay [4], in [8] and in assay [9] was greater than 100 µM throughout. The TGI in assay [10], in [5], in assay [6] and in assay [7] was greater than 100 µM in each case.

As to `CC[C@@H]1ON(C)[C@H]2CN(C)C(=O)[C@@H]12`, the TGI in [1], in [2], in assay [3], in assay [10], in assay [5] and in assay [6] was greater than 100 µM in each case. This compound displayed a TGI in assay [7] greater than 100 µM.

Turning to `CCN1CCCC(C#N)(c2ccccc2)CC1` (stereo not drawn), the TGI in assay [2], in assay [3], in assay [8], in [9], in [10] and in [5] was greater than 100 µM each time. Moreover, the TGI in assay [6] and in assay [7] was greater than 100 µM each time.

As for `CN(C)CCCC1c2ccccc2Oc2ccc(C(F)(F)F)cc21` (stereo not drawn), the TGI in assay [1] was found to be 31.5 µM; in [2], 31.9 µM; in [3], 30.5 µM; in assay [4], 23.4 µM; in [8] it was 15.8 µM; in assay [9] it was 25.9 µM. Also, the TGI in [10] came to 24.5 µM; in assay [5], 18.3 µM; in [6], 30.4 µM; in assay [7], 28.3 µM.

In the case of `COc1ccc2c(c1O)-c1cc(O)cc3c1[C@@H](C2)N(C)CC3`, the TGI in [1] is 262 µM; in [2], 8.27 µM; in assay [4], 136 µM; in [8], 126 µM; in assay [9] it was 125 µM; in [5], 241 µM. The compound further showed a TGI in [7] of 227 µM.

In the case of `NC(=S)N/N=C/c1nccc2ccccc12`, the TGI in assay [2] is greater than 100 µM; in [4] it was 14.7 µM; in assay [8], 0.476 µM; in assay [9], greater than 100 µM; in assay [10], 11.5 µM; in assay [5], greater than 100 µM. Moreover, the TGI in assay [6] came out at 1.01 µM.

For `COc1cc([C@@H]2c3cc4c(c(O)c3C[C@H]3COC(=O)[C@@H]32)OCO4)cc(OC)c1OC`, the GI50 in assay [1] is 0.374 µM; in assay [3], 0.324 µM; in assay [4] it was 0.144 µM; in assay [10], 1.46 µM and 0.812 µM; in assay [5], 0.141 µM; in assay [6], 1.43 µM. In addition, the TGI was 94.3 µM and > 241 µM and > 100 µM in [1]; greater than 231 µM in assay [3]; greater than 100 µM in [9]; 121 µM and > 100 µM in assay [6].

The values above are taken from PubChem BioAssay (NCI).
